Series [1] relates to CYP11B2 (aldosterone synthase) expression, H295R cells expressing KCNJ5^G151R. In words: Real-time PCR of CYP11B2 in H295R cells transfected with KCNJ5^G151R. It counts as cell-based, human. The note with it: 5, 20 or 50 μM for 18 h; p=0.0006 at 20 μM. As to the method:
H295R cells were cultured in DMEM/F12, HEPES (Gibco) supplemented with 2.5% Ultroser G (Pall Biosepra), 1% ITS+ Premix (Corning) and 1% Penicillin/Streptomycin (Gibco). Plasmids were purified using the Endofree Maxi Kit (Qiagen). […] 3×10^6 cells were transfected with 3 μg pIRES eGFP containing no insert, WT or mutant KCNJ5 using an Amaxa Nucleofector I (program P-20) and the Nucleofector Kit R (Lonza). Cells were allowed to recover briefly in RPMI 1640 medium (Gibco). […] After an additional 18 h, RNA was harvested using the RNeasy Mini Kit (Qiagen) following the manufacturer's instructions. 300 ng RNA were transcribed using the Quantitect Reverse Transcription Kit (Qiagen). Expression levels of CYP11B2 and GAPDH were quantified in triplicates in a 7300 Real-Time PCR System (Applied Biosystems) using the Taqman Gene Expression Master Mix and assays Hs01597732_m1 (CYP11B2) or HS02758991_g1 (GAPDH) (all Applied Biosystems). DDCT values were calculated by normalization of DCT values, using the average DCT of vehicle treated empty vector-transfected cells as a reference.
This cell line is derived from a human adrenocortical carcinoma and represents a commonly used in vitro model of zona glomerulosa aldosterone production (Wang et al. 2012, Horm. Metab. Res. 44:245-250). […]
(In general: In qPCR the cycle at which signal appears reflects the starting amount.)

For series [2] the following is noted: single dose of 300 mg, healthy adults, cited from earlier work.

Where two headings read alike, the source gives them in different places.

In the case of `CC[C@H]1OC(=O)[C@H](C)[C@@H](O[C@H]2C[C@@](C)(OC)[C@@H](O)[C@H](C)O2)[C@H](C)[C@@H](O[C@@H]2O[C@H](C)C[C@H](N(C)C)[C@H]2O)[C@](C)(O)C[C@@H](C)/C(=N\OCOCCOC)[C@H](C)[C@@H](O)[C@]1(C)O` [Roxithromycin, roxithromycin], the “expression of CYP11B2” value in series [1] is “inhibited expression of CYP11B2 in a dose-dependent fashion”. Besides, the values for the maximum serum concentrations in series [2] and in series [2] (conversion of 16.4 mg/L) were 16.4 mg/L and roughly 17 µM, respectively.

The values above are taken from patent publication US11484543B2, “Compositions and methods for diagnosing and treating diseases and disorders associated with mutant KCNJ5” (The Rockefeller University, priority 2017, dated 2022).
